Among the test systems are A498 renal; CAKI-1 renal; CCRF-CEM leukemia; DU-145 prostate; HCT-116 colon; HCT-15 colon; HOP-62 NSCLC; K-562 leukemia; KM12 colon; M14 melanoma; MOLT-4 leukemia; NCI/ADR-RES ovarian; RPMI-8226 leukemia; RXF 393 renal; SF-268 CNS; SF-295 CNS; SK-MEL-2 melanoma; SK-MEL-28 melanoma; SK-MEL-5 melanoma; SNB-75 CNS.
Holding throughout (assay): NCI-60 cell line screen, 48 h

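Dose response: 5 concentrations. Exposure: 48 h. Format: 96-well plates. Endpoint: linear interpolation; highest concentration if not reached. TGI: concentration producing complete growth inhibition.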

Take `Cc1c2ccccc2c(C2C3C(=O)N(c4ccc(Br)cc4)C(=O)C3ON2C(C(N)=O)c2ccccc2)c2ccccc12` (stereo not given): the TGI with A498 renal was 11.7 µM; with CAKI-1 renal it was 21.3 µM; in the assay on CCRF-CEM leukemia it was 22.4 µM; with DU-145 prostate, 26.7 µM; in the assay on HCT-116 colon, above 100 µM; with HCT-15 colon it was 18.7 µM. In addition, the TGI in the assay on HOP-62 NSCLC is 36.1 µM; with K-562 leukemia it was above 100 µM; in the assay on KM12 colon, 22.1 µM; in the assay with M14 melanoma, above 100 µM; with MOLT-4 leukemia, above 100 µM; with NCI/ADR-RES ovarian, 41.4 µM. For the same compound, the TGI was 4.63 µM in the assay with RPMI-8226 leukemia; 37.3 µM in the assay with RXF 393 renal; above 100 µM with SF-268 CNS; 58.5 µM in the assay with SF-295 CNS; 30.3 µM in the assay on SK-MEL-2 melanoma; 74.6 µM in the assay with SK-MEL-28 melanoma. Also, the figures for the TGI in the assay on SK-MEL-5 melanoma and in the assay on SNB-75 CNS were 11.9 µM and 17.3 µM, respectively.

For `COC1/C=C(C)/C=C/C(C)/C=C/C(=O)OC(/C(C)=C/C=C(\C)CNC(=O)[C@H](CO)NC=O)C(C)/C=C/C=C/C(OC)CC/C=C(C)/C=C/C1` (stereo not given in full), the TGI with A498 renal was above 1 µM; in the assay on CAKI-1 renal, above 0.397 µM; with CCRF-CEM leukemia, above 1 µM; in the assay on DU-145 prostate it was above 1 µM; in the assay on HCT-116 colon, above 1 µM; in the assay on HCT-15 colon it was above 1 µM. In addition, the TGI in the assay on HOP-62 NSCLC is 0.109 µM; with K-562 leukemia it was 0.0472 µM; with KM12 colon, above 1 µM; in the assay on M14 melanoma, 0.0356 µM; in the assay with MOLT-4 leukemia, above 0.611 µM; in the assay on NCI/ADR-RES ovarian it was above 0.724 µM. Moreover, the TGI is 0.0769 µM with RPMI-8226 leukemia; above 1 µM in the assay on RXF 393 renal; above 1 µM in the assay with SF-268 CNS; 0.0534 µM in the assay on SF-295 CNS; above 0.246 µM in the assay with SK-MEL-2 melanoma; above 1 µM in the assay on SK-MEL-28 melanoma. Moreover, the TGI in the assay with SK-MEL-5 melanoma was 0.0654 µM; in the assay with SNB-75 CNS it was above 1 µM.

Consider `O=C(C=P(c1ccccc1)(c1ccccc1)c1ccccc1)c1ccc(-c2cccs2)cc1`, for which the TGI in the assay on A498 renal was determined as 10.8 µM; with CAKI-1 renal it was 19.6 µM; in the assay on CCRF-CEM leukemia it was 22.1 µM; in the assay on DU-145 prostate it was 22.3 µM; in the assay with HCT-116 colon, 13.9 µM; in the assay with HCT-15 colon it was 24.7 µM. Moreover, the TGI is 20.7 µM in the assay with HOP-62 NSCLC; 15.9 µM with K-562 leukemia; 15 µM in the assay with KM12 colon; 7.75 µM in the assay with M14 melanoma; 4.7 µM with MOLT-4 leukemia; 23.1 µM in the assay on NCI/ADR-RES ovarian. The TGI was determined as 5.07 µM in the assay on RPMI-8226 leukemia; 15.4 µM with RXF 393 renal; 27.1 µM in the assay on SF-268 CNS; 17.4 µM in the assay on SF-295 CNS; 3.11 µM in the assay with SK-MEL-2 melanoma; 15.7 µM in the assay on SK-MEL-28 melanoma. The TGI with SK-MEL-5 melanoma is 5.25 µM; in the assay with SNB-75 CNS, 8.86 µM.

These data come from PubChem BioAssay (NCI).
